Molecules are shown by their SMILES.

Broadly, the EC50 is the concentration at which the effect is half-maximal. Low values mean higher potency in that assay, high ones lower potency in that assay. The term IC50 denotes the concentration at which inhibition is half-maximal. Read a high IC50 as weaker potency in that assay.

Series [1] deals with RARE-β-galactosidase (F9-RARE-β-galactosidase reporter cell line). Description: Transcription of RARE-β-galactosidase in F9-RARE-β-galactosidase reporter cell line. The class given is cell-based. Particulars: Mus musculus; media lacking serum. How it is done:
Cells were treated with different concentrations of retinoids in media lacking serum, harvested and assayed for β-galactosidase activity. […] The β-galactosidase activity in this cell line reflects the activation of the RARs.

Series [2] addresses T1, RAR-γ (Mus musculus, UniProt P18911).
T1 sequence (P18911 1-458): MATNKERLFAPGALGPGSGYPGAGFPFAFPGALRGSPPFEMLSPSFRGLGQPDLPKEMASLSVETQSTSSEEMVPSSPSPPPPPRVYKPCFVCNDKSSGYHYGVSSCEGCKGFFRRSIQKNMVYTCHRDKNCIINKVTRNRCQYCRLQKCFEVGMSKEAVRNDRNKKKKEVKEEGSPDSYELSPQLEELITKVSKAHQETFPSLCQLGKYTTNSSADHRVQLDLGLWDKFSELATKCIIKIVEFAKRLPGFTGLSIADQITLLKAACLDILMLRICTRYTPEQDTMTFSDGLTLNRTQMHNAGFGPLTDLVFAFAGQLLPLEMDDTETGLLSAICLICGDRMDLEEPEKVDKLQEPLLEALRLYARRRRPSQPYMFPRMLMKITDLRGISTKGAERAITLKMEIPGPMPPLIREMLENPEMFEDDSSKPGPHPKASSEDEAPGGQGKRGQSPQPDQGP
In words: Competitive binding of 3H-all-trans-retinoic acid to RAR-γ.
Description: (§5) Retinoids were assayed for their ability to bind members of the family of the retinoic acid receptors, the RARs, as follows:
(§6) COS-1 cells were transfected by DEAE-dextran with pSG5 expression vectors containing cDNAs for mouse RARs α, β, or γ or RXRs α, β, or γ. […] Nucleosol or cytosol fractions were prepared as described in Nervi, C., et al (30) and Nervi, C., et al (31) and stored at -70° C. until use. Aliquots of nucleosol or cytosol were incubated in nuclei lysis buffer as described in Nervi, C., et al (30) with tritiated ligands for 4 h at 4° C. […] For competitive binding assays, the incubations were performed with increasing concentrations of unlabeled competing ligand and a fixed concentration of the radioligand (10 nM ^3 H-retinoic acid). In saturation kinetic studies, incubations were performed in the presence of increasing concentrations of the indicated radioligand. For all binding assays, bound was separated from free radioactivity as described in Levin, A. A., et al (29).

Series [3] has as its target T2, RAR-α (Mus musculus, UniProt P11416).
T2 construct: expressed in transfected cells; host or cells: COS-1
T2 sequence (P11416 1-462): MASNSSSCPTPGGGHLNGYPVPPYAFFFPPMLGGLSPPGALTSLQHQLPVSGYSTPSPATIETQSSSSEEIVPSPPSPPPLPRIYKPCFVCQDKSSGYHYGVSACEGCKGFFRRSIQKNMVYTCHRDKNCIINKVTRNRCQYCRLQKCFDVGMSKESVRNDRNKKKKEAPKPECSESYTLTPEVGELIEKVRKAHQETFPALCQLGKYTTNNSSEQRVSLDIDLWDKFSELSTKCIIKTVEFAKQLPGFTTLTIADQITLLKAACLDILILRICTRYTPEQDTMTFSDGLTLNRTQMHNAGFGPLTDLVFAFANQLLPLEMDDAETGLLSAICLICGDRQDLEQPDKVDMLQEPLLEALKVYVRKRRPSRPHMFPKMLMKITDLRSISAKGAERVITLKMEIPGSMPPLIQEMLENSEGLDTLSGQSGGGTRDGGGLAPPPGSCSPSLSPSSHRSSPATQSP
In words: Competitive binding of 3H-all-trans-retinoic acid to RAR-α. To be noted: concentration to inhibit 50% binding of 3H-all-trans-retinoic acid (10 nM); mean ± SD, at least 3 replicate experiments.
Description: as §5, §6

The test system of series [4] is aging or photodamaged skin. In words: Treatment of patients with aging or photodamaged skin. Particulars: oral 100 mg/square meter per day or topical 10 mg per square inch per day, 4 to 8 months. The series is classed as in vivo, human.
The test system of series [5] is advanced head and neck cancer. In words: Treatment of patients with advanced head and neck cancer. The series is classed as in vivo, human. Particulars: oral, 100 mg/square meter per day. From the text:
Current systemic chemotherapy regimens are unable to prolong survival of patients with advanced head and neck cancer.

The subject of series [6] is cellular retinoic acid binding protein I (CRABP I). Description: Inhibition of all-trans-3H-retinoic acid binding to CRABP I. To be noted: data not shown.
In series [7] the test system is Hoxa-1. Description: Hoxa-1 gene expression in F9 stem cells by Northern blot. The series is classed as cell-based. Particulars: Mus musculus, F9, 72 h, read-out: Hoxa-1 transcripts induction. From the text: (§1) Teratocarcinoma stem cells can be induced to differentiate in monolayer culture by retinoic acid over a 3-4 day period into nonmalignant endoderm cells resembling the extraembryonic endoderm of the mouse blastocyst as described in Gudas, L. J., et al (27). The F9 teratocarcinoma stem cell line is used as a model tumor cell differentiation system because F9 stem cells share similar biochemical, immunological and morphological characteristics with early mouse embryonic stem cells and additionally, large numbers of cells can be cultured and experimentally manipulated. The expression of several homeobox genes including Hoxa-1 is induced by RA in mouse teratocarcinoma cell lines as described in LaRosa, G. J., et al (34) and LaRosa, G. J., et al (35). […] See LaRosa, G. L, et al (34). Other genes such as laminin B1 are activated subsequent to the activation of Hox 1.6 by retinoic acid as described in Vasios, G. W., et al (36).

For series [8], the system named is RXRs α, β, or γ. Description: Inhibition of 3H-9-cis retinoic acid binding to RXRs. Further details: species or system mouse. From the text:
See Levin, A. A., et al (29).

Series [9] relates to breast cancer. In words: Treatment of patients with breast cancer. The class given is in vivo, human. Particulars: oral, 100 mg/square meter per day.
Series [10] has as its system deep (cystic) acne. In words: Treatment of patients with deep (cystic) acne. The series is classed as in vivo, human. Particulars: oral, 100 mg/square meter per day. From the text: A very prolonged remission, and potentially permanent cure can be obtained.
Series [11] has as its system psoriatic arthritis. In words: Treatment of patients with psoriatic arthritis. The class given is in vivo, human. To be noted: oral, 50 mg/square meter per day.
Series [12] deals with F9 stem cells. Description: Metabolism of 3H-4-hydroxyretinol in F9 cells (HPLC). The class given is in vitro ADME, mouse. To be noted: besides 4-oxo-retinol; 50 nM. As for the experimental part:
(§2) ^3 H-4-hydroxyretinol and ^3 H-4-oxo-retinol were purified from RA treated, differentiated F9 cells (ATCC CRL 1720) after the differentiated cells were incubated with ^3 H-retinol for 18 h. The identities of purified ^3 H-4-hydroxyretinol and ^3 H-4-oxo-retinol were verified by matching both the elution times on the HPLC and the spectra of known standards.
(§3) F9 stem cells or retinoic acid-treated cells (72 h) were cultured in the presence of 50 nM of either ^3 H-4-hydroxyretinol or ^3 H-4-oxo-retinol for different periods of time.
(§4) FIGS. 4A-4D depict HPLC analysis after incubation in the presence of 50 nM ^3 H-4-hydroxyretinol for periods of time as indicated and extraction using the method described in McClean, S. W., et al (15). F9 stem cells are shown in FIGS. 4A-4D to convert 4-hydroxyretinol to 4-oxo-retinol. The rate of this conversion was virtually identical in both stem and retinoic acid-treated cells. This rate was calculated to be about 20% in a period of 15 h.

Assay in series [13]: as above
The class given is in vitro ADME, mouse. Particulars: mouse, f9 cells; 50 nM, 15 h; virtually identical in stem and retinoic acid-treated cells; read-out: conversion of 4-hydroxyretinol to 4-oxo-retinol. As for the experimental part: as §2, §3, §4

The target of series [14] is T3, RAR-β (Mus musculus, UniProt P22605).
T3 sequence (P22605 1-448 isoform P22605-3): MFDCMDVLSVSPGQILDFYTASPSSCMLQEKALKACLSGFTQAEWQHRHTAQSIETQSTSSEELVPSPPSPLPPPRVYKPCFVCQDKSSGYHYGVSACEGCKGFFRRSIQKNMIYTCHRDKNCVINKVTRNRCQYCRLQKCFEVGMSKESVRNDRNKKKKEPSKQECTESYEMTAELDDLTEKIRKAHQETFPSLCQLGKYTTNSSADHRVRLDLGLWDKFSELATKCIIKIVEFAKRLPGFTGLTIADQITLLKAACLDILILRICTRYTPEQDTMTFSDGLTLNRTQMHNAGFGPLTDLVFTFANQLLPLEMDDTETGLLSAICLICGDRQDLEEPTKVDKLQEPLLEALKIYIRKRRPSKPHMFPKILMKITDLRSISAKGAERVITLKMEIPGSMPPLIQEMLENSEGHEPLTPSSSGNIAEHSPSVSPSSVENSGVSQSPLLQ
Description: Competitive binding of 3H-all-trans-retinoic acid to RAR-β.
Description: as §5, §6

Series [15] deals with laminin B1. Description: Laminin B1 gene expression in F9 stem cells by Northern blot. Particulars: Mus musculus, F9, 72 h, read-out: Laminin B1 expression induction. The series is classed as cell-based.
Source text: as §1

In series [16] the test system is F9 stem cells. Particulars: refs (37), (38), cited from earlier work.
In series [17] the test system is RARs α, β, or γ. To be noted: Mangelsdorf et al (14); cited from earlier work.
Series [18] has as its system RARs α, β, or γ. In words: Inhibition of 3H-all-trans-retinoic acid binding to RARs (stated for all subtypes together). To be noted: concentrations up to 50,000 nM.
Description: as §5, §6

For the molecule `CC1=C(/C=C/C(C)=C/C=C/C(C)=C/CO)C(C)(C)CCC1O` (centres unmarked) [4-OH retinol], the EC50 in series [1] was 0.076 µM. Further, the IC50 in series [2] was determined as 3.4 ± 1.6 µM; in series [3] it was 5 ± 1.4 µM; in series [14] it was 3.8 ± 1.1 µM. Moreover, the “wrinkles, smoothness, pigmented areas of skin” value in series [4] is “fewer and reduced depth of wrinkles, increased smoothness of the skin, and a reduction in pigmented areas of the skin”. In addition, the “tumor burden, head and neck cancer” value in series [5] was “reduced tumor burden”. Further, in series [5] (and/or reduced tumor burden), the “survival beyond the median” value is 4-6 months. Besides, in series [6], the “inhibition of binding of all-trans-3H-retinoic acid to CRABP I” value was “unable to inhibit”. For the same molecule, the fold induction at 1 µM in series [7] was found to be 9; in series [15], 3. In addition, the “inhibition of 3H-9-cis retinoic acid binding to RXRs” value in [8] (data not shown) is reported as “Neither the 4-hydroxyretinol nor the 4-oxo-retinol inhibited”. Besides, the “tumor burden, breast cancer” value in series [9] was “reduced tumor burden”. For the same molecule, the “mean reduction in lesion counts” value in series [10] (end of 3 to 6 months) is given as “greater than 85%”. Besides, the acne clearance entry in [10] (after discontinuation) is “in some cases complete clearance occurs”. Further, the psoriatic arthritis symptoms entry in [11] is “fewer tender joints and a decreased duration of morning stiffness”. Also, in [12], the “other metabolites of 4-hydroxyretinol” value is “No other metabolite”. In series [13], the metabolised at 15 h, 0.05 µM is around 20%.

Turning to `CC1=C(/C=C/C(C)=C/C=C/C(C)=C/C(=O)O)C(C)(C)CCC1` [RA, all-trans-retinoic acid], it took 0.009 µM to reach a half-maximal effect in [1] (EC50). Further, in series [16] (differentiated, enzyme induced), the “half-life in differentiated retinoic acid-treated F9 stem cells” value is below 3 h. For the same molecule, the “half-life in F9 stem cells” value in series [16] (undifferentiated) is 3 h. Also, the “binding to α-, β- and γ-retinoic acid receptors” value in [17] is “binds equally well to α-, β-, and γ-retinoic acid receptors”.

The molecule `CC1=C(/C=C/C(C)=C/C=C/C(C)=C/CO)C(C)(C)CCC1` [retinol, reference compound] registered an EC50 in series [1] above 3 µM. Moreover, the “inhibition of all-trans-3H-retinoic acid binding to any of the RARs” value in [18] was “no apparent inhibition”. Moreover, the results for the fold induction at 1 µM in series [7] and in series [15] were 4 and 2, respectively. For the same molecule, the “inhibition of 3H-9-cis retinoic acid binding to the RXRs” value in [8] (concentrations up to 50,000 nM) is “no apparent inhibition”.
